In PubChem BioAssay (NCI):
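In this assay, cells in 96-well plates receive the compound at five concentrations for 48 hours. Endpoints are linearly interpolated between the surrounding concentrations. GI50 is the concentration that inhibits growth by half. TGI: total growth inhibition.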

Columns and labels:
Experiment in all cases: growth of human tumour cells (NCI), 48 h
[1] = tested on: NCI-H522 lung
[2] = tested on: PC-3 prostate
[3] = tested on: SK-MEL-5 melanoma
[4] = tested on: OVCAR-5 ovarian
[5] = tested on: DU-145 prostate
[6] = tested on: SNB-75 CNS
[7] = tested on: HS 578T breast
[8] = tested on: M14 melanoma
[9] = tested on: MCF7 breast
[10] = tested on: CAKI-1 renal

SMILES	GI50 [1]	TGI [1]	GI50 [2]	TGI [2]	GI50 [3]	TGI [3]	GI50 [4]	TGI [4]	GI50 [5]	TGI [5]	GI50 [6]	TGI [6]	GI50 [7]	TGI [7]	GI50 [8]	TGI [8]	GI50 [9]	TGI [9]	TGI [10]	GI50 [10]
O=C(Cc1ccc(/C=C/C(=O)c2ncc[nH]2)cc1)Nc1ccc(F)cc1	3.38 µM	9.42 µM	2.8 µM	11.9 µM	6.06 µM	11.9 µM	2.6 µM	9.81 µM	1.19 µM	4.58 µM	11.1 µM	> 33.3 µM	23.3 µM	> 33.3 µM	5.98 µM	17.6 µM	0.995 µM	4.62 µM	–	–
Nc1ncnc2c1ncn2[C@]1(CO)C=C(CO)C(O)C1O (some centres not stated)	–	> 100 µM	–	–	–	> 100 µM	–	> 100 µM	–	–	–	> 100 µM	–	–	–	> 100 µM	–	–	> 100 µM	–
Cc1nc2ccc(Nc3nc(Cl)nc(N4CCOCC4)n3)cc2n1Cc1ccccc1	2.98 µM	20.8 µM	10 µM	> 100 µM	–	–	> 100 µM	> 100 µM	28.1 µM	> 100 µM	4.47 µM	29.6 µM	4.67 µM	> 100 µM	–	–	18.4 µM	> 100 µM	> 100 µM	20.2 µM
COC(=O)C(C(=O)C(=O)Nc1c(C)cccc1C)c1cnc2ccccc2n1 (configuration not stated)	–	> 100 µM	–	–	–	> 100 µM	–	> 100 µM	–	–	–	> 100 µM	–	–	–	> 100 µM	–	–	> 100 µM	–
CC(=O)OCC1OC(n2cc(F)c(=O)[nH]c2=O)C(NC(=O)N(CCCl)N=O)C(OC(C)=O)C1OC(C)=O (configuration not stated)	–	> 100 µM	–	–	–	> 100 µM	–	–	–	–	–	78.3 µM	–	–	–	> 100 µM	–	–	> 100 µM	–
Cn1c2c(c3ccccc31)CCN(CCCCN1CCCCC1)C2=O	–	> 100 µM	–	–	–	> 100 µM	–	> 100 µM	–	–	–	–	–	–	–	> 100 µM	–	–	> 100 µM	–
CN1C(=O)CCC1(O)C1C=CC=CC1 (configuration not stated)	–	> 100 µM	–	–	–	> 100 µM	–	> 100 µM	–	–	–	> 100 µM	–	–	–	> 100 µM	–	–	> 100 µM	–
CC1=Nc2ccccc2S/C1=C(/C)NNS(=O)(=O)c1ccc(C)cc1	–	> 100 µM	–	–	–	> 100 µM	–	> 100 µM	–	–	–	> 100 µM	–	–	–	> 100 µM	–	–	> 100 µM	–
CCN1C/C(=C\c2cc(OC)c(OC)cc2OC)C(=O)/C(=C/c2cc(OC)c(OC)cc2OC)C1	3.05 µM	12 µM	4.25 µM	> 100 µM	1.59 µM	3.53 µM	3.2 µM	> 100 µM	1.85 µM	4.12 µM	5.86 µM	78 µM	3.34 µM	79.5 µM	2.3 µM	5.37 µM	–	–	6.82 µM	2.98 µM
COc1ccc(NC(=O)C(=O)c2c(O)c3ccc(O)cc3oc2=O)c([N+](=O)[O-])c1	–	> 100 µM	–	–	–	> 100 µM	–	> 100 µM	–	–	–	> 100 µM	–	–	–	> 100 µM	–	–	> 100 µM	–
